Assay results published in patent US12227500B2, “Substituted pyrrolo[2,3-b]pyridines for suppressing toxic endoplasmic reticulum stress” (THE TRUSTEES OF COLUMBIA UNIVERSITY IN THE CITY OF NEW YORK, priority 2018, dated 2025).

How the values were obtained:
Experiment in all cases: Radiolabeled ATP kinase assay, panel of 371 kinases (Table S6)
Type in all cases: biochemical
[1] = target: T1, panel of 371 human kinases (Homo sapiens, UniProt P37173); details: TGFBR2; 0.1 μM; 10 μM ATP; read-out: % Enzyme Activity (relative to DMSO controls)
T1 construct: purchased Reaction Biology Corp
T1 sequence (P37173 23-567): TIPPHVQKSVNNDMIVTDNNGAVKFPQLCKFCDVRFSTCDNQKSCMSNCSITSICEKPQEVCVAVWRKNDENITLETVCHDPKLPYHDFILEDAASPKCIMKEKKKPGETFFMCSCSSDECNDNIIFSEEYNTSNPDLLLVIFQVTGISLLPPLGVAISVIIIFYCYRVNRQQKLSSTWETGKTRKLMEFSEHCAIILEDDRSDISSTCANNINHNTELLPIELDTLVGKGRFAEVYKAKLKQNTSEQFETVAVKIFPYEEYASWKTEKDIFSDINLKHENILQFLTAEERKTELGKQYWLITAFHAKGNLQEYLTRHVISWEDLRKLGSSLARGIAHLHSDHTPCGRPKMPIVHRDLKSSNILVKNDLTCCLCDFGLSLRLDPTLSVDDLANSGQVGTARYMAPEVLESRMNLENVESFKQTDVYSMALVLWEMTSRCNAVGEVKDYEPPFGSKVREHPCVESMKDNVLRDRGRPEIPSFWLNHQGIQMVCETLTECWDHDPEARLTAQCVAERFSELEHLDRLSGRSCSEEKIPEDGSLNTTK
From the text: (§1) ; FIG. 38C). […]. Further targeted analyses, such as genetic knock-down or knock-out, may be warranted to parse the role of these additional kinases in our model of neurodegeneration.

[2] = target: T2, panel of 371 human kinases (Homo sapiens, UniProt Q04912); details: RON/MST1R; 0.1 μM; 10 μM ATP; read-out: % Enzyme Activity (relative to DMSO controls)
T2 construct: purchased Reaction Biology Corp
From the text: as §1

[3] = target: T3, panel of 371 human kinases (Homo sapiens, UniProt P37023); details: ALK1/ACVRL1; 0.1 μM; 10 μM ATP; read-out: % Enzyme Activity (relative to DMSO controls)
T3 construct: purchased Reaction Biology Corp
T3 sequence (P37023 22-503): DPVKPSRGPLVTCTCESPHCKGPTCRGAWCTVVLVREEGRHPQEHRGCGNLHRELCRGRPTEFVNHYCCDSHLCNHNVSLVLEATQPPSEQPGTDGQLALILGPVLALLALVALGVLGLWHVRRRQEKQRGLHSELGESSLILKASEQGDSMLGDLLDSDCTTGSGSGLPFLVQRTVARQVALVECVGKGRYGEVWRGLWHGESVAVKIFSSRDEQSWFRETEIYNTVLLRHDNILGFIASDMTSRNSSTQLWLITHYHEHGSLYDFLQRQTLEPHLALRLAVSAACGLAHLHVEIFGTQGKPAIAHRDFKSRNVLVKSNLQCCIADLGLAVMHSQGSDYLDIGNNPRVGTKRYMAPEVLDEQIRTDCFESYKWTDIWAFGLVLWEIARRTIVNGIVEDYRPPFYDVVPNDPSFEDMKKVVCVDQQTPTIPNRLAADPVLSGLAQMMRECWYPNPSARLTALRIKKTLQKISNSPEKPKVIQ
From the text: as §1

[4] = target: T4, panel of 371 human kinases (Homo sapiens, UniProt P29597); details: TYK2; 0.1 μM; 10 μM ATP; read-out: % Enzyme Activity (relative to DMSO controls)
T4 construct: purchased Reaction Biology Corp
From the text: as §1

[5] = target: T5, panel of 371 human kinases (Homo sapiens, UniProt O00141); details: SGK1; 0.1 μM; 10 μM ATP; read-out: % Enzyme Activity (relative to DMSO controls)
T5 construct: purchased Reaction Biology Corp
From the text: as §1

[6] = target: T6, panel of 371 human kinases (Homo sapiens, UniProt P22694); details: PKAcb; 0.1 μM; 10 μM ATP; read-out: % Enzyme Activity (relative to DMSO controls)
T6 construct: purchased Reaction Biology Corp
From the text: as §1

[7] = target: T7, panel of 371 human kinases (Homo sapiens, UniProt P17612); details: PKA; 0.1 μM; 10 μM ATP; read-out: % Enzyme Activity (relative to DMSO controls)
T7 construct: purchased Reaction Biology Corp
From the text: as §1

[8] = target: T8, panel of 371 human kinases (Homo sapiens, UniProt P53779); details: JNK3; 0.1 μM; 10 μM ATP; read-out: % Enzyme Activity (relative to DMSO controls)
T8 construct: purchased Reaction Biology Corp
T8 sequence (P53779 whole entry): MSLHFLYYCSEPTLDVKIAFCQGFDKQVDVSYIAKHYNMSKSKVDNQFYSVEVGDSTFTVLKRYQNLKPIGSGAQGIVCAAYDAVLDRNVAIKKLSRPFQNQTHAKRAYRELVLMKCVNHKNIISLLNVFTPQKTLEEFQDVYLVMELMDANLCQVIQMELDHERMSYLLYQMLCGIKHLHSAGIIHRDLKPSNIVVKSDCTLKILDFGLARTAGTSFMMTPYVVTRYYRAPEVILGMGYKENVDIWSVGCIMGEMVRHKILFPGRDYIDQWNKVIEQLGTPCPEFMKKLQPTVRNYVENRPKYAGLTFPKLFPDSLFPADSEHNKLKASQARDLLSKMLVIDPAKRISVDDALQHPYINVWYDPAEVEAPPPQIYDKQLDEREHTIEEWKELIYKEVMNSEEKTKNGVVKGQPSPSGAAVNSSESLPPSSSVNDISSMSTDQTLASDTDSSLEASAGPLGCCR
From the text: as §1

[9] = target: T9, panel of 371 human kinases (Homo sapiens, UniProt Q9UM73); details: ALK; 0.1 μM; 10 μM ATP; read-out: % Enzyme Activity (relative to DMSO controls)
T9 construct: purchased Reaction Biology Corp
T9 sequence (Q9UM73 19-1620): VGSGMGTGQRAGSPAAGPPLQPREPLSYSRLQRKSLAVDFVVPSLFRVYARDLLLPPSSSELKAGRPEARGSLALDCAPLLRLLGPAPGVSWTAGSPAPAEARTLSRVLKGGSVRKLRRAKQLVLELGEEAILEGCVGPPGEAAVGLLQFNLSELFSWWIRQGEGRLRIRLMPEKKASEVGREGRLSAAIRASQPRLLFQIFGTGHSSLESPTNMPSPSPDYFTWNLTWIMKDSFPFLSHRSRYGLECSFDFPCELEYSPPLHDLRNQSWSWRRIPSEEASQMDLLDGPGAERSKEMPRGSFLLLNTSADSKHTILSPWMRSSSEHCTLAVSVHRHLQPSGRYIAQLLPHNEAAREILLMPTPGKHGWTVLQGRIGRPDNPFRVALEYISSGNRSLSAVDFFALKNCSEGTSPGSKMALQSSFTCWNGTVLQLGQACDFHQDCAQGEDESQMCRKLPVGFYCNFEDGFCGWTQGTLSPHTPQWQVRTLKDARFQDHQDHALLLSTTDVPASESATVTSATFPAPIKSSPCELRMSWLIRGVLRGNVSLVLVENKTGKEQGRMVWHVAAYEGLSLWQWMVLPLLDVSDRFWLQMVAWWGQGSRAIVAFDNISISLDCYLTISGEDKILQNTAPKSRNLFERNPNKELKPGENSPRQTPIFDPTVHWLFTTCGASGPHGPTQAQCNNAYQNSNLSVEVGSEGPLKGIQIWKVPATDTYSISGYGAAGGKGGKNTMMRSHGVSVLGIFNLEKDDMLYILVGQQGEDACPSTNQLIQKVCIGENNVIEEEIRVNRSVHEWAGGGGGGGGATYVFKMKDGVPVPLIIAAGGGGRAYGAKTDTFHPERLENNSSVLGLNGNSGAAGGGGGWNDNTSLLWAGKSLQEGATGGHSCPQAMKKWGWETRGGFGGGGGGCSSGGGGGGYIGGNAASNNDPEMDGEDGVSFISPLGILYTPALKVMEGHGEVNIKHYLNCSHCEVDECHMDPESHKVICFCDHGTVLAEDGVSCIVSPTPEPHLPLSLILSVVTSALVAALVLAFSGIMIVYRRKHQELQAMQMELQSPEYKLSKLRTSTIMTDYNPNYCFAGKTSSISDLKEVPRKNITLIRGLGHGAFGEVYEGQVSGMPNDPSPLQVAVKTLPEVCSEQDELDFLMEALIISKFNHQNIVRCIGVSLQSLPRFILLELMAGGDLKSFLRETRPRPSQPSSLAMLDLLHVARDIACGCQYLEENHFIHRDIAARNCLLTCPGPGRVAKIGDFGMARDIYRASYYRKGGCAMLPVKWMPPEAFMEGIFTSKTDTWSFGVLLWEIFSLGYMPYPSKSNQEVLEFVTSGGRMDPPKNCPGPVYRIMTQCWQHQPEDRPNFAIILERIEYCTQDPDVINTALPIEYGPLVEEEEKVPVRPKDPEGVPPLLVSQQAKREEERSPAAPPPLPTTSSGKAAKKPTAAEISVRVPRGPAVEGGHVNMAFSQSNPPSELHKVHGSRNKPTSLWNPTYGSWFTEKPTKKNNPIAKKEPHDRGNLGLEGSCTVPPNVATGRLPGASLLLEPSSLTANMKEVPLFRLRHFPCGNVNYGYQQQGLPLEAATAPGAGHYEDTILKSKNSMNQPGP
From the text: as §1

[10] = target: T10, panel of 371 human kinases (Homo sapiens, UniProt P16234); details: PDGFRa; 0.1 μM; 10 μM ATP; read-out: % Enzyme Activity (relative to DMSO controls)
T10 construct: purchased Reaction Biology Corp
T10 sequence (P16234 24-1089): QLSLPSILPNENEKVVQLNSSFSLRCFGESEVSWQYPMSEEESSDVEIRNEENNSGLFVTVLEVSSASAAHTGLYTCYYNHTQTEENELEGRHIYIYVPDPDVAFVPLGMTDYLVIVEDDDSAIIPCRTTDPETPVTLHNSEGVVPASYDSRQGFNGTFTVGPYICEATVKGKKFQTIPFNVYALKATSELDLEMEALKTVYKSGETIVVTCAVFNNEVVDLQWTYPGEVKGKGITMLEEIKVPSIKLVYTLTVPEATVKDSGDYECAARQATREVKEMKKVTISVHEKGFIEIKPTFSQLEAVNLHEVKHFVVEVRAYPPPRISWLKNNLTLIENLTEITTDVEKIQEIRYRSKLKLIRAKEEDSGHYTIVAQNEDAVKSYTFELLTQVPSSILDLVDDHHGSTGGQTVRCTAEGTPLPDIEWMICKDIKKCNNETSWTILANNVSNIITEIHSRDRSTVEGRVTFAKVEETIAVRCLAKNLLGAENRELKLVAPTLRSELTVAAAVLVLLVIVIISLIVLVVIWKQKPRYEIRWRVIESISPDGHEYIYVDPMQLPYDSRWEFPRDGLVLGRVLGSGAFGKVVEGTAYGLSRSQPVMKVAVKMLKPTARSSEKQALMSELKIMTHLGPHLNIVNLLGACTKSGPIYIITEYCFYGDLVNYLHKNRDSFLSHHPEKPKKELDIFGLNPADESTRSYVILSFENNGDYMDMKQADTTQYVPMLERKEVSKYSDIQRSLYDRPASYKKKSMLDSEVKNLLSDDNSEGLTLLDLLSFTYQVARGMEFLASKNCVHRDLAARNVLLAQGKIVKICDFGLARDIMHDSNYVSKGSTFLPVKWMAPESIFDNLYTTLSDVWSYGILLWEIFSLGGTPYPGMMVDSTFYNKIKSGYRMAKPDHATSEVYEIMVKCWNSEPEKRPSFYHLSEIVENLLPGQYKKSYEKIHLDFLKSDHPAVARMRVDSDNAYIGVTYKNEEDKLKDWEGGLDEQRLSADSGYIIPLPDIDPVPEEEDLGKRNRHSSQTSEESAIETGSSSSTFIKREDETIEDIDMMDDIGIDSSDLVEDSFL
From the text: as §1

[11] = target: T11, panel of 371 human kinases (Homo sapiens, UniProt P06239); details: LCK; 0.1 μM; 10 μM ATP; read-out: % Enzyme Activity (relative to DMSO controls)
T11 construct: purchased Reaction Biology Corp
From the text: as §1

[12] = target: T12, panel of 371 human kinases (Homo sapiens, UniProt Q99759); details: MEKK3; 0.1 μM; 10 μM ATP; read-out: % Enzyme Activity (relative to DMSO controls)
T12 construct: purchased Reaction Biology Corp
From the text: as §1

[13] = target: T13, panel of 371 human kinases (Homo sapiens, UniProt Q6P2M8); details: CAMK1b; 0.1 μM; 10 μM ATP; read-out: % Enzyme Activity (relative to DMSO controls)
T13 construct: purchased Reaction Biology Corp
From the text: as §1

[14] = target: T14, panel of 371 human kinases (Homo sapiens, UniProt Q05513); details: PKCzeta; 0.1 μM; 10 μM ATP; read-out: % Enzyme Activity (relative to DMSO controls)
T14 construct: purchased Reaction Biology Corp
From the text: as §1

[15] = target: T15, panel of 371 human kinases (Homo sapiens, UniProt Q9BXA7); details: STK22D/TSSK1; 0.1 μM; 10 μM ATP; read-out: % Enzyme Activity (relative to DMSO controls)
T15 construct: purchased Reaction Biology Corp
T15 sequence (Q9BXA7 whole entry): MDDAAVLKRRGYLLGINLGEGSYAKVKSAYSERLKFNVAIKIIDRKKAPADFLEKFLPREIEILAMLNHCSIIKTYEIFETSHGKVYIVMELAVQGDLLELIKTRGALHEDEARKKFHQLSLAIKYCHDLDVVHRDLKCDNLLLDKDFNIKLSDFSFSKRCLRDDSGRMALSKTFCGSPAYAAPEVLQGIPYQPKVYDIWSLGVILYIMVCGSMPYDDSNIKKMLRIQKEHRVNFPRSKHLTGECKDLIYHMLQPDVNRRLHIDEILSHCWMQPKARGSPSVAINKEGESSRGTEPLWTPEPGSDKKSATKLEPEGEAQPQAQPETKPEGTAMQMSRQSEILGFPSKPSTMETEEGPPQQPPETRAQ
From the text: as §1

[16] = target: T16, panel of 371 human kinases (Homo sapiens, UniProt P29323); details: EPHB2; 0.1 μM; 10 μM ATP; read-out: % Enzyme Activity (relative to DMSO controls)
T16 construct: purchased Reaction Biology Corp
From the text: as §1

[17] = target: T17, panel of 371 human kinases (Homo sapiens, UniProt O75914); details: PAK3; 0.1 μM; 10 μM ATP; read-out: % Enzyme Activity (relative to DMSO controls)
T17 construct: purchased Reaction Biology Corp
From the text: as §1

[18] = target: T18, panel of 371 human kinases (Homo sapiens, UniProt Q00536); details: CDK16/cyclin Y (PCTAIRE); 0.1 μM; 10 μM ATP; read-out: % Enzyme Activity (relative to DMSO controls)
T18 construct: purchased Reaction Biology Corp
T18 sequence (Q00536 whole entry): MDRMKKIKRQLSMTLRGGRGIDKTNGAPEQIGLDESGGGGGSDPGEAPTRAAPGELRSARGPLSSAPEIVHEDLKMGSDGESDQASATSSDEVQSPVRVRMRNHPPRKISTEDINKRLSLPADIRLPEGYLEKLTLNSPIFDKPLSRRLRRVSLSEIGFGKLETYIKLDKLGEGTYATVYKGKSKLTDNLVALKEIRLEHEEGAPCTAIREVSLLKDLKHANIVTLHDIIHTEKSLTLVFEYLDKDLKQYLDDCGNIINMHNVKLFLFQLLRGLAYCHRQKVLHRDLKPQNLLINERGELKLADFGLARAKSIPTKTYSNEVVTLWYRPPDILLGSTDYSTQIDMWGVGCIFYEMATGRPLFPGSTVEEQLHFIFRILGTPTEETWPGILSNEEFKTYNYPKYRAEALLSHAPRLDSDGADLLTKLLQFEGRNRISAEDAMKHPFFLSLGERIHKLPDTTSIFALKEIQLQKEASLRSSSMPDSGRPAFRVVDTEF
From the text: as §1

[19] = target: T19, panel of 371 human kinases (Homo sapiens, UniProt Q9UL54); details: TAOK2/TAO1; 0.1 μM; 10 μM ATP; read-out: % Enzyme Activity (relative to DMSO controls)
T19 construct: purchased Reaction Biology Corp
From the text: as §1

[20] = target: T20, panel of 371 human kinases (Homo sapiens, UniProt Q9UEW8); details: STK39/STLK3; 0.1 μM; 10 μM ATP; read-out: % Enzyme Activity (relative to DMSO controls)
T20 construct: purchased Reaction Biology Corp
From the text: as §1

[21] = target: T21, panel of 371 human kinases (Homo sapiens, UniProt Q16566); details: CAMK4; 0.1 μM; 10 μM ATP; read-out: % Enzyme Activity (relative to DMSO controls)
T21 construct: purchased Reaction Biology Corp
From the text: as §1

[22] = target: T22, panel of 371 human kinases (Homo sapiens, UniProt Q13873); details: BMPR2; 0.1 μM; 10 μM ATP; read-out: % Enzyme Activity (relative to DMSO controls)
T22 construct: purchased Reaction Biology Corp
From the text: as §1

[23] = target: T23, panel of 371 human kinases (Homo sapiens, UniProt Q9HBH9); details: MNK2; 0.1 μM; 10 μM ATP; read-out: % Enzyme Activity (relative to DMSO controls)
T23 construct: purchased Reaction Biology Corp
From the text: as §1

[24] = target: T24, panel of 371 human kinases (Homo sapiens, UniProt Q8TD08); details: ERK7/MAPK15; 0.1 μM; 10 μM ATP; read-out: % Enzyme Activity (relative to DMSO controls)
T24 construct: purchased Reaction Biology Corp
From the text: as §1

Row | SMILES | remaining activity at 0.1 µM [1] | remaining activity at 0.1 µM [2] | remaining activity at 0.1 µM [3] | remaining activity at 0.1 µM [4] | remaining activity at 0.1 µM [5] | remaining activity at 0.1 µM [6] | remaining activity at 0.1 µM [7] | remaining activity at 0.1 µM [8] | remaining activity at 0.1 µM [9] | remaining activity at 0.1 µM [10] | remaining activity at 0.1 µM [11] | remaining activity at 0.1 µM [12] | remaining activity at 0.1 µM [13] | remaining activity at 0.1 µM [14] | remaining activity at 0.1 µM [15] | remaining activity at 0.1 µM [16] | remaining activity at 0.1 µM [17] | remaining activity at 0.1 µM [18] | remaining activity at 0.1 µM [19] | remaining activity at 0.1 µM [20] | further results
1 | CN1CCN(Cc2ccc(-c3cnc4[nH]cc(-c5ccc6[nH]ccc6c5)c4c3)cc2)CC1 [Compound 1, 3-(1H-Indol-5-yl)-5-(4-((4-methylpiperazin-1-yl)methyl)phenyl)-1H-pyrrolo[2,3-b]pyridine, reference compound] | 106% | 91.6% | 106% | 90.8% | 96% | 106% | 104% | 89.5% | 73.8% | 86.9% | 94.2% | 91.6% | 105% | 93.6% | 87.2% | 88.6% | 97.3% | 130% | 104% | 90.7% | remaining activity at 0.1 µM [21]: 95.1%; remaining activity at 0.1 µM [22]: 90.5%; remaining activity at 0.1 µM [23]: 97.6%; remaining activity at 0.1 µM [24]: 109%
2 | OCCN1CCN(Cc2ccc(-c3cnc4[nH]cc(-c5cccc(Cl)c5)c4c3)cc2)CC1 [Compound 12k, 2-(4-(4-(3-(3-Chlorophenyl)-1H-pyrrolo[2,3-b]pyridin-5-yl)benzyl)piperazin-1-yl)ethan-1-ol] | 88% | 94.1% | 100% | 92.9% | 99.6% | 92.6% | 94.5% | 94.4% | 85.3% | 87.8% | 98.8% | 94.6% | 103% | 97.7% | 75.2% | 98.3% | 90.8% | 97.3% | 103% | 77.3% | remaining activity at 0.1 µM [21]: 100%; remaining activity at 0.1 µM [22]: 90.3%; remaining activity at 0.1 µM [23]: 65.2%; remaining activity at 0.1 µM [24]: 90.4%
